The values that follow come from patent publication US20240158348A1, “HERBICIDAL CYCLIC AMIDES N-SUBSTITUTED WITH A HALOALKYLSULFONYLANILIDE GROUP” (FMC Corporation, priority 2021, published 2024).

What all share (format): in vivo
One assay has as its system corn (Zea mays). The experiment in a line: Test C preemergence, corn. The conditions noted are these: 0 is no effect, 100 is complete control. The gist of the method: (§1)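 Ratings run from 0, meaning no effect, up to 100, meaning complete control, judged by eye against untreated plants. Treatment was a directed soil spray before emergence or a postemergence spray on 2–10 cm seedlings, with evaluation 10 or 12 days later.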

Assay [1] has as its system foxtail, giant (giant foxtail, Setaria faberi). The assay can be described thus: Test C preemergence, giant foxtail. The conditions noted are these: 0 is no effect, 100 is complete control. The gist of the method:
(§2)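 Herbicidal effect was estimated visually on a 0–100 scale 10 or 12 days after spraying. Formulation: non-phytotoxic solvent mixture with surfactant. Timing: directed soil spray after sowing, or postemergence on seedlings bearing one or two leaves.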

Assay [2] relates to goosegrass (Eleusine indica). The experiment in a line: Test C preemergence, goosegrass. The conditions noted are these: 0 is no effect, 100 is complete control. The gist of the method: as §1
The subject of assay [3] is pigweed, palmer (palmer amaranth, Amaranthus palmeri). The experiment in a line: Test C postemergence, palmer amaranth. The conditions noted are these: visual injury, 0 to 100 scale (0 no effect, 100 complete control). Summed up: as §2
The test system of assay [4] is ragweed (common ragweed, Ambrosia artemisiifolia). The experiment in a line: Test C postemergence, ragweed. The conditions noted are these: visual injury, 0 to 100 scale (0 no effect, 100 complete control). Summed up:
as §2

The subject of a further assay is soybean (Glycine max). The experiment in a line: Test C postemergence, soybean. The conditions noted are these: visual injury, 0 to 100 scale (0 no effect, 100 complete control).
In assay [5] the test system is wheat (Triticum aestivum). The assay can be described thus: Test C postemergence, wheat. The conditions noted are these: visual injury, 0 to 100 scale (0 no effect, 100 complete control). Summed up: as §2
Assay [6] concerns barnyardgrass (Echinochloa crusgalli). The assay can be described thus: Test D flooded paddy test, barnyardgrass. Conditions: 250 g ai/ha, Flood; applied to paddy water at 2-leaf stage; visual rating after 13 days; scale 0 (no effect) to 100 (complete control). Further details: key: 0 = no effect, 100 = complete control. Summed up:
(§3)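 Plants were grown to the 2-leaf stage, then pots were flooded to 3 cm above soil and compounds applied directly into the paddy water, with that depth held throughout. After 13 days in a greenhouse, injury was visually rated against untreated controls on a 0–100 scale (0 no effect, 100 complete control).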

Assay [7] relates to sedge, umbrella (small-flower umbrella sedge, Cyperus difformis). The experiment in a line: Test D flooded paddy test, umbrella sedge. Conditions: 250 g ai/ha, Flood; applied to paddy water at 2-leaf stage; visual rating after 13 days; scale 0 (no effect) to 100 (complete control). Further details: key: 0 = no effect, 100 = complete control. The gist of the method: as §3

Molecules are shown by their SMILES.

`Cc1cc(C)c(N(COC(=O)C(C)(C)C)S(=O)(=O)C(F)(F)F)cc1N1CCC(OCC2CC2)C1=O` (centres unmarked) [Compound 53]: the “Plant response rating (0 to 100 scale), Corn” value (“Plant response rating … Corn” for short) in the assay with corn (Zea mays) (31 g ai/ha Preemergence) was 0; with corn (Zea mays) (125 g ai/ha Preemergence), 50. Also, the “Plant response rating (0 to 100 scale), Foxtail, Giant” value (shortened to “Plant response rating … Giant”) in assay [1] (31 g ai/ha Preemergence) is recorded as 10; in [1] (125 g ai/ha Preemergence), 90. For the same molecule, the “Plant response rating (0 to 100 scale), Goosegrass” value (“Plant response rating … Goosegrass” for short) in assay [2] (31 g ai/ha Preemergence) came to 60; in [2] (125 g ai/ha Preemergence), 100. For the same molecule, the “Pigweed, Palmer plant response rating” value is on record as 40 in assay [3] (31 g ai/ha Postemergence) and 70 in assay [3] (125 g ai/ha Postemergence). In addition, the results for the “Ragweed plant response rating” value in [4] (31 g ai/ha Postemergence) and in assay [4] (125 g ai/ha Postemergence) were 70 and 90, respectively. Besides, the entries for the “Soybean plant response rating” value in the assay with soybean (Glycine max) (31 g ai/ha Postemergence) and in the assay with soybean (Glycine max) (125 g ai/ha Postemergence) were 50 and 60, respectively. For the same molecule, the figures for the “Wheat plant response rating” value in assay [5] (31 g ai/ha Postemergence) and in [5] (125 g ai/ha Postemergence) were 40 and 80, respectively. In assay [6], the “Plant response rating, Barnyardgrass” value is recorded as 40. For the same molecule, the “Plant response rating, Sedge, Umbrella” value in [7] amounted to 98.
Take `Cc1cc(C)c(N2CCC(OC3COC3)C2=O)cc1NS(=O)(=O)C(F)(F)F` (centres unmarked) [Compound 34]: the “Plant response rating … Corn” value in the assay on corn (Zea mays) (31 g ai/ha Preemergence) turned out to be 10; in the assay on corn (Zea mays) (125 g ai/ha Preemergence) it was 80. The “Plant response rating … Giant” value in assay [1] (31 g ai/ha Preemergence) and in assay [1] (125 g ai/ha Preemergence) was 90 throughout. For the same molecule, the “Plant response rating … Goosegrass” value in assay [2] (31 g ai/ha Preemergence) is recorded as 30; in assay [2] (125 g ai/ha Preemergence), 100. The “Pigweed, Palmer plant response rating” value in assay [3] (31 g ai/ha Postemergence) is on record as 70; in assay [3] (125 g ai/ha Postemergence) it was 100. In addition, the “Ragweed plant response rating” value in [4] (31 g ai/ha Postemergence) and in assay [4] (125 g ai/ha Postemergence) was 90 throughout. Further, the “Soybean plant response rating” value was 60 in the assay on soybean (Glycine max) (31 g ai/ha Postemergence) and 70 in the assay with soybean (Glycine max) (125 g ai/ha Postemergence). The figures for the “Wheat plant response rating” value in [5] (31 g ai/ha Postemergence) and in assay [5] (125 g ai/ha Postemergence) were 70 and 80, respectively. For the same molecule, the “Plant response rating, Barnyardgrass” value in assay [6] stood at 35. For the same molecule, the “Plant response rating, Sedge, Umbrella” value in [7] is 80.
Regarding `CC#CCOC1CCN(c2cc(NS(=O)(=O)C(F)(F)F)c(C)cc2C)C1=O` (centres unmarked) [Compound 60], the “Plant response rating … Corn” value in the assay with corn (Zea mays) (31 g ai/ha Preemergence) was determined as 30; in the assay with corn (Zea mays) (125 g ai/ha Preemergence), 100. For the same molecule, the “Plant response rating … Giant” value in assay [1] (31 g ai/ha Preemergence) and in assay [1] (125 g ai/ha Preemergence) was 100 throughout. For the same molecule, the “Plant response rating … Goosegrass” value in assay [2] (31 g ai/ha Preemergence) was found to be 90; in assay [2] (125 g ai/ha Preemergence), 100. The “Pigweed, Palmer plant response rating” value in [3] (31 g ai/ha Postemergence) is listed as 60; in assay [3] (125 g ai/ha Postemergence), 90. In addition, the “Ragweed plant response rating” value in [4] (31 g ai/ha Postemergence) is given as 80; in assay [4] (125 g ai/ha Postemergence), 90. Further, the “Soybean plant response rating” value in the assay on soybean (Glycine max) (31 g ai/ha Postemergence) was 80; with soybean (Glycine max) (125 g ai/ha Postemergence) it was 100. Besides, the “Wheat plant response rating” value in assay [5] (31 g ai/ha Postemergence) is 80; in assay [5] (125 g ai/ha Postemergence), 90. Further, the “Plant response rating, Barnyardgrass” value in [6] worked out at 90. The “Plant response rating, Sedge, Umbrella” value in assay [7] was 95.
For the molecule `Cc1cc(Cl)c(N(COC(=O)C(C)(C)C)S(=O)(=O)C(F)(F)F)cc1N1CCC(OC2CC2)C1=O` (centres unmarked) [Compound 33], the “Plant response rating … Corn” value with corn (Zea mays) (31 g ai/ha Preemergence) stood at 30; with corn (Zea mays) (125 g ai/ha Preemergence) it was 60. For the same molecule, the “Plant response rating … Giant” value in [1] (31 g ai/ha Preemergence) turned out to be 70; in [1] (125 g ai/ha Preemergence), 100. For the same molecule, the figures for the “Plant response rating … Goosegrass” value in assay [2] (31 g ai/ha Preemergence) and in [2] (125 g ai/ha Preemergence) were 90 and 100, respectively. In addition, the “Pigweed, Palmer plant response rating” value in assay [3] (31 g ai/ha Postemergence) was 20; in [3] (125 g ai/ha Postemergence), 80. In addition, the “Ragweed plant response rating” value in [4] (31 g ai/ha Postemergence) and in assay [4] (125 g ai/ha Postemergence) was 90 throughout. The “Soybean plant response rating” value is 80 in the assay on soybean (Glycine max) (31 g ai/ha Postemergence) and 100 in the assay on soybean (Glycine max) (125 g ai/ha Postemergence). Further, the “Wheat plant response rating” value in [5] (31 g ai/ha Postemergence) is given as 50; in assay [5] (125 g ai/ha Postemergence), 70. The “Plant response rating, Barnyardgrass” value in assay [6] is given as 90. In [7], the “Plant response rating, Sedge, Umbrella” value was 90.
Turning to `CC(=O)N(c1cc(N2CCC(OC3CC3)C2=O)c(C)cc1Cl)S(=O)(=O)C(F)(F)F` (centres unmarked) [Compound 38], the “Plant response rating … Corn” value in the assay on corn (Zea mays) (31 g ai/ha Preemergence) stood at 20; in the assay on corn (Zea mays) (125 g ai/ha Preemergence), 80. The “Plant response rating … Giant” value is listed as 80 in assay [1] (31 g ai/ha Preemergence) and 100 in assay [1] (125 g ai/ha Preemergence). Further, the “Plant response rating … Goosegrass” value in [2] (31 g ai/ha Preemergence) and in assay [2] (125 g ai/ha Preemergence) was 100 each time. Further, the “Pigweed, Palmer plant response rating” value stood at 50 in assay [3] (31 g ai/ha Postemergence) and 80 in assay [3] (125 g ai/ha Postemergence). Moreover, the “Ragweed plant response rating” value in assay [4] (31 g ai/ha Postemergence) was found to be 80; in assay [4] (125 g ai/ha Postemergence) it was 90. The “Soybean plant response rating” value worked out at 70 in the assay on soybean (Glycine max) (31 g ai/ha Postemergence) and 80 with soybean (Glycine max) (125 g ai/ha Postemergence). Further, the “Wheat plant response rating” value in [5] (31 g ai/ha Postemergence) and in [5] (125 g ai/ha Postemergence) was 60 throughout. Besides, in assay [6], the “Plant response rating, Barnyardgrass” value stood at 0. In addition, the “Plant response rating, Sedge, Umbrella” value in [7] is reported as 75.
